Measured values reported in patent publication US9745360B2 (Sanofi, priority 2012, dated 2017).
In brackets after ≈: the same amount, converted by molar mass. Read-outs that look alike come from different tables or passages of the source. *1 amine or outer side, *2 acyl side, *3 side chain or, on linkers, in order; H or OH if unused. Where a SMILES comes first, the peptide text is derived from it. Side-chain parts run from the residue outwards. [ ]: non-standard residue; d: D form. The star is where a group is joined. γGlu = O=C(O)[C@H](CCC(=O)[*:2])N[*:1]; Palmitoyl = CCCCCCCCCCCCCCCC(=O)*; αMeK = C[C@](N)(CCCCN)C(=O)O; Aib = CC(C)(N)C(=O)O

What was measured:
[1] = target: T1, human GIP receptor (hGIP R) (Homo sapiens, UniProt P48546); assay: cAMP response (HTRF) of HEK-293 cells stably expressing human GIP receptor; format: cell-based; conditions: Table 7; cAMP formation
T1 construct: expressed in transfected cells
T1 sequence (P48546 22-466): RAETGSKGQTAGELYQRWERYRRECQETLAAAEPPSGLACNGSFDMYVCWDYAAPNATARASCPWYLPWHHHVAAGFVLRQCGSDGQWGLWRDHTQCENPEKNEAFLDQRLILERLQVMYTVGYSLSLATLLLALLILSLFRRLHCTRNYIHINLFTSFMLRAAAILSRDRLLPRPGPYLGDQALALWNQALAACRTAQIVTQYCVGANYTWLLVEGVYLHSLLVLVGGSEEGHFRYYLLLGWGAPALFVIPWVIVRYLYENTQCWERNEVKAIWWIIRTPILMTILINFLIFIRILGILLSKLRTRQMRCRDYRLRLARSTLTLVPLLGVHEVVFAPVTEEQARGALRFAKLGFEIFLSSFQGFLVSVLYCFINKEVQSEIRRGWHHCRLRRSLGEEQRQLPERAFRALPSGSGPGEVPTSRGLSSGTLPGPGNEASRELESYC
Description: (§1) cAMP content of cells was determined using a kit from Cisbio Corp. (cat. no. 62AM4PEC) based on HTRF (Homogenous Time Resolved Fluorescence). For preparation, cells were split into T175 culture flasks and grown overnight to near confluency in medium (DMEM/10% FBS). Medium was then removed and cells washed with PBS lacking calcium and magnesium, followed by proteinase treatment with accutase (Sigma-Aldrich cat. no. A6964). Detached cells were washed and resuspended in assay buffer (1×HBSS; 20 mM HEPES, 0.1% BSA, 2 mM IBMX) and cellular density determined. They were then diluted to 400000 cells/ml and 25 μl-aliquots dispensed into the wells of 96-well plates. For measurement, 25 μl of test compound in assay buffer was added to the wells, followed by incubation for 30 minutes at room temperature.

[2] = system: non-fasted female diabetic dbdb-mice; assay: Glucose lowering in non-fasted female diabetic dbdb-mice; format: in vivo; conditions: 3 μg/kg s.c., at 240 min, kept to 480 min, baseline 20-22 mmol/l
Description: Female diabetic dbdb-mice of mean non-fasted glucose value of 20-22 mmol/l and a body weight of 42 g+/−0.6 g (SEM) were used. Mice were individually marked and were adapted to housing conditions for at least one week.
3-5 days prior to study start mice were assigned to groups and cages (4 mice per cage, 8 per group, control group 16) according to their non-fasted glucose values to ensure even distribution of lower and higher values between groups (stratification). On the study day, mice were weighed and dosed (t=0). Immediately prior to compound administration feed was removed while water remained available, and a first blood sample at a tail incision was drawn (baseline). Further blood samples were drawn at the tail incision at 30, 60, 90, 120, 240, 360, and 480 min.
Statistical analyses are performed with Everstat Version 6.0 based on SAS by 2-way-ANOVA on repeated measures, followed by Dunnett's post-hoc test against vehicle-control. Differences are considered statistically significant at the p<0.05 level.

[3] = target: T2, human GLP-1 receptor (hGLP-1 R) (Homo sapiens, UniProt P43220); assay: cAMP response (HTRF) of HEK-293 cells stably expressing human GLP-1 receptor; format: cell-based; conditions: Table 7; cAMP formation
T2 construct: expressed in transfected cells
Description: as §1

[4] = Pharmacokinetic testing in mice, s.c., LC/MS of plasma; format: in vivo; conditions: mouse, sc, 1 mg/kg s.c.
Description: Mice were dosed 1 mg/kg subcutaneously (s.c.).
Pharmacokinetic profiles were determined as described in Methods.

[5] = Solubility testing in buffer, HPLC-UV of supernatant; format: physicochemical; conditions: buffer, target concentration 1.0 mg/mL
Description: Solubility and chemical stability of peptidic compounds were assessed as described in Methods.

T2 sequence (P43220 24-463): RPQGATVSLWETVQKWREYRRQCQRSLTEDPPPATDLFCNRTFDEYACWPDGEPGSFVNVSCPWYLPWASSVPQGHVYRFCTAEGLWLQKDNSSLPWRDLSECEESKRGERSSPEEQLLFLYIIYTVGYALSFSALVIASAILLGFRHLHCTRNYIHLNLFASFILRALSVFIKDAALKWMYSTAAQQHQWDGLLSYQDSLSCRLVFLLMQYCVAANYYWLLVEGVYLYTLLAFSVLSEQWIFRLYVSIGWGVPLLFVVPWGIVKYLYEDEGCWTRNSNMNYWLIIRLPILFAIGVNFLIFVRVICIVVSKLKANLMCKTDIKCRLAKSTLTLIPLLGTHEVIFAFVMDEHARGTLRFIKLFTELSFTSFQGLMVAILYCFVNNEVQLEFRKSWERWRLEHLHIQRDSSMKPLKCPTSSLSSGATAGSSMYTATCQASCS

For CCCCCCCCCCCCCCCC(=O)N[C@@H](CCC(=O)NCCCC[C@H](NC(=O)[C@H](CCC(N)=O)NC(=O)[C@@H](NC(=O)[C@H](CO)NC(=O)[C@H](CC(C)C)NC(=O)[C@H](CC(=O)O)NC(=O)[C@H](CO)NC(=O)[C@@H](NC(=O)[C@H](Cc1ccccc1)NC(=O)[C@@H](NC(=O)CNC(=O)[C@H](CCC(=O)O)NC(=O)C(C)(C)NC(=O)[C@@H](N)Cc1ccc(O)cc1)[C@@H](C)O)[C@@H](C)O)[C@@H](C)CC)C(=O)N[C@@H](CCC(=O)O)C(=O)N[C@@H](CCC(=O)O)C(=O)N[C@@H](CCCNC(=N)N)C(=O)N[C@@H](C)C(=O)N[C@@H](C)C(=O)N[C@@](C)(CCCCN)C(=O)N[C@@H](CCC(=O)O)C(=O)N[C@@H](Cc1ccccc1)C(=O)N[C@H](C(=O)N[C@@H](CCC(=O)O)C(=O)N[C@@H](Cc1c[nH]c2ccccc12)C(=O)N[C@@H](CC(C)C)C(=O)N[C@@H](CCCCN)C(=O)N[C@@H](CC(N)=O)C(=O)N[C@H](C(=O)NCC(=O)N1CCC[C@H]1C(=O)N[C@@H](CO)C(=O)N[C@@H](CO)C(=O)NCC(=O)N[C@@H](C)C(=O)N1CCC[C@H]1C(=O)N1CCC[C@H]1C(=O)N1CCC[C@H]1C(=O)N[C@@H](CO)C(N)=O)[C@@H](C)O)[C@@H](C)CC)C(=O)O [SEQ ID NO: 11, Y-Aib-E-G-T-F-T-S-D-L-S-I-Q-K(γE-x53)-E-E-R-A-A-(S)MeLys-E-F-I-E-W-L-K-N-T-G-P-S-S-G-A-P-P-P-S-NH2] (H-Y[Aib]EGTFTSDLSIQK([γGlu-Palmitoyl])EERAA[αMeK]EFIEWLKNTGPSSGAPPPS-NH2), the EC50 [1] was 7 pM, the “maximal effect, glucose reduction” value [2] was about 11 mmol/L and the EC50 [3] was 5.1 pM. The Cmax [4] was 5940 ng/mL, the half-life [4] was 4.3 h and the solubility at 2 h ([5]; pH 4.5, read-out: Solubility (pH 4.5)) was 964 µg/mL (≈ 208 µM). For the same compound, the solubility at 2 h ([5]; pH 7.4, read-out: Solubility (pH 7.4)) was 900 µg/mL (≈ 194 µM).
